In patent US20240294570A1, “ENZYMATICALLY FORMING INTRANUCLEAR PEPTIDE ASSEMBLIES FOR SELECTIVELY KILLING INDUCED PLURIPOTENT STEM CELLS” (BRANDEIS UNIVERSITY, priority 2021, published 2024):
Non-standard residues stand in square brackets, D forms with d. Residues, ends and D or L forms follow the SMILES beside them. *: point of attachment. pY = N[C@@H](Cc1ccc(OP(=O)(O)O)cc1)C(=O)O; NBD = O=[N+]([O-])c1ccc(*)c2nonc12; βAla = NCCC(=O)O

Columns and labels:
[1] = Enzymatic self-assembly in vitro, nanostructures by TEM; format: physicochemical
Protocol: TEM Sample Preparation: After placing 5 μL samples on 400 mesh copper grids coated with continuous thick carbon film (˜35 nm) which is glowed discharged, we washed the grid with ddH2O and UA (uranyl acetate). The sample loaded grid was stained with the UA. The residual UA was removed by filter paper and then dried in air. TEM images were obtained with Morgagni 268 transmission electron microscope.
After obtaining all the precursors, their behaviors for EISA were evaluated in vitro using transmission electron microscopes (TEM) to examine the nanostructures formed before and after the ALP catalyzed dephosphorylation of precursors 5, 7, and 9. […] The critical micelle concentration (CMC) of 5 is 86.1 μM. […] The CMC of 6 is 8.1 μM. Unlike the case of 5, dephosphorylation of 7 or 9 at 400 μM by ALP (0.5 U/mL) produces nanofibers with the diameters of 6±2 nm or 9±2 nm, whose CMC is 87.4 μM or 25.8 μM, respectively.
A key requirement for selectively eliminating iPSCs by EISA is that the L-peptide nanoribbons only form on and in iPSCs, which overexpress ALP, but not on and in the differentiated cells that express normal level of ALP. That is, L-peptide nanoribbons should only rapidly form at high level of ALP, but not at normal level of ALP. […] Thus, after assessing the level of ALP expression in iPSCs, it should be possible to optimizing the initial concentration of a peptide and the time of dephosphorylation, to promote EISA that selectively targets iPSCs.

HS-5 cells = experiment: Cytotoxicity against HS-5 cells (MTT assay); format: cell-based, human; details: 400 μM, 2 h
Protocol: (§1) Cell Culture: Human induced pluripotent stem cell line A21 was generated from human normal dermal fibroblasts by using the StemRNA™-NM Reprogramming kit (Stemgent, Cat #00-0076). hiPSCs were routinely cultured and passaged on 6-well plates coated with 0.25 μg/cm^2 iMatrix-511 (Recombinant Laminin-511) (ReproCell) with NutriStem XF/FFTM medium (Biological Industries). HS-5 cell line and HEK293 cell line were purchased from American Type Culture Collection (ATCC, USA). HS-5 cells were cultured in Dulbecco's Modified Eagle Medium (DMEM) supplemented with 10% fetal bovine serum (FBS), 100 U/mL penicillin and 100 μg/mL streptomycin. HEK293 cells were cultured in Minimal Essential Medium (MEM) supplemented with 10% fetal bovine serum (FBS), 100 U/mL penicillin and 100 μg/mL streptomycin. All cells were maintained at 37° C. in a humidified atmosphere of 5% CO2.
Cell Viability of Differentiated Cells: Cytotoxicity against HS-5 cells and HEK293 cells was determined by using MTT assay. […] The absorbance of each well at 595 nm was measured by a DTX880 Multimode Detector. The results were calculated as cell viability percentage relative to untreated cells. […]

iPSCs = experiment: Cell viability of iPSCs (trypan blue); format: cell-based, human; details: 400 μM, 2 h
Protocol: as §1
(§2) Cell Viability of iPSC's: iPSCs were plated in 6-well plates and incubated for 24 to 48 hours, then media were replaced with fresh one (2 ml) supplemented with PBS (control) 5 (200 μM, 300 μM, and 400 μM), 7 (400 μM) or 9 (400 μM), and incubated for 2 hours. Media were removed and cells were rinsed with PBS once, fresh normal cultural media were added and incubated for 30 min. All cells were collected and stained with trypan blue, live cells were counted using Cellometer Auto 2000 (Nexcelom Bioscience). Data were obtained by from three independent wells (n=3).

[2] = Cell viability of iPSCs (trypan blue); format: cell-based, human; details: human, human induced pluripotent stem cells (iPSC line A21), 2 hours
Protocol: as §1, §2

iPS-derived HPCs = experiment: Cell viability of iPS-derived HPCs (trypan blue); format: cell-based, human; details: 400 μM, 2 h
Protocol: (§3) Differentiation of Human iPSC to iPS-derived Hematopoietic Progenitor Cells (HPC's): iPSCs were differentiated into hematopoietic progenitor cells (HPCs) by using a 3D-bioreactor platform^1. HPCs released from iPSC-spheroids after 9-10 days' differentiation were collected and characterized. Hematopoietic lineage specific marker expression of harvested HPCs were analyzed by flow cytometry. About 97.6% of these HPCs were CD31+CD43+ double positive, but only about 13% are OCT4+, indicative of commitment to hematopoietic lineage. These iPS-derived HPCs were used for 5 (400 μM, 2 hr) cytotoxicity assay.
(§4) Cell Viability of iPS-derived HPC's: iPS-derived HPCs were plated in 12-well plates and incubated overnight, then media were replaced with fresh one (2 ml) supplemented with PBS (control) 5 (400 μM) incubated for 2 hours. All cells were collected and stained with trypan blue, live cells were counted using Cellometer Auto 2000 (Nexcelom Bioscience). Data were obtained by from three independent wells (n=3).

[3] = Cell viability of iPS-derived HPCs (trypan blue); format: cell-based, human; details: human, iPS-derived hematopoietic progenitor cells (HPCs), read-out: viability of the HPC cells
Protocol: as §3, §4

CC(C)C[C@H](NC(=O)CCNc1ccc([N+](=O)[O-])c2nonc12)C(=O)N[C@@H](CC(C)C)C(=O)N[C@@H](CC(C)C)C(=O)N[C@@H](CC(C)C)C(=O)N[C@@H](Cc1ccc(OP(=O)(O)O)cc1)C(=O)O [compound 5, NBD-βA-LLLLpY] ({NBD-βAla}-LLLL[pY]-OH)
diameters of nanoparticles ([1]; 200 μM, one-hour treatment by 0.1 U/mL ALP): 404±50 nm
widths of nanoribbons ([1]; 400 μM, ALP 0.5 U/mL, 37° C., 24 h): 74±13 nm
diameter of short nanofibers ([1]; 400 μM, PBS, before ALP): 9±2 nm
cytotoxicity towards HS-5 cells (HS-5 cells): slight cytotoxicity
cell death of iPSCs (FIG. 8A) (iPSCs): 93%
viability at 2 h, 200 µM ([2]; 200 μM): 31.1 ± 3.2%
viability at 2 h, 300 µM ([2]; 300 μM): 18.5 ± 1.5%
viability at 2 h, 400 µM ([2]; 400 μM): 6.96 ± 1.71%
cell survival of HPCs (FIG. 8B) (iPS-derived HPCs): 97%
viability at 2 h, 400 µM [3]: 96.8%
